These compounds were tested against T1, Androgen Receptor (AR) (Homo sapiens, UniProt P10275, T878A) (assay: LNCaP Androgen Receptor Down-regulation Cell Assay (immunofluorescence end point)). Details: LNCaP prostate carcinoma cells, compound incubation 20-22 hours, 50% reduction of the AR signal; read-out: Androgen Receptor Down-regulation Assay (a) IC50/μM.
T1 construct: cell based immuno-fluorescence assay using the LNCaP prostate epithelial cell line; endogenous in cells; host or cells: LNCaP clone FGC (ATCC CRL-1740)
T1 sequence (P10275 1-920 T878A): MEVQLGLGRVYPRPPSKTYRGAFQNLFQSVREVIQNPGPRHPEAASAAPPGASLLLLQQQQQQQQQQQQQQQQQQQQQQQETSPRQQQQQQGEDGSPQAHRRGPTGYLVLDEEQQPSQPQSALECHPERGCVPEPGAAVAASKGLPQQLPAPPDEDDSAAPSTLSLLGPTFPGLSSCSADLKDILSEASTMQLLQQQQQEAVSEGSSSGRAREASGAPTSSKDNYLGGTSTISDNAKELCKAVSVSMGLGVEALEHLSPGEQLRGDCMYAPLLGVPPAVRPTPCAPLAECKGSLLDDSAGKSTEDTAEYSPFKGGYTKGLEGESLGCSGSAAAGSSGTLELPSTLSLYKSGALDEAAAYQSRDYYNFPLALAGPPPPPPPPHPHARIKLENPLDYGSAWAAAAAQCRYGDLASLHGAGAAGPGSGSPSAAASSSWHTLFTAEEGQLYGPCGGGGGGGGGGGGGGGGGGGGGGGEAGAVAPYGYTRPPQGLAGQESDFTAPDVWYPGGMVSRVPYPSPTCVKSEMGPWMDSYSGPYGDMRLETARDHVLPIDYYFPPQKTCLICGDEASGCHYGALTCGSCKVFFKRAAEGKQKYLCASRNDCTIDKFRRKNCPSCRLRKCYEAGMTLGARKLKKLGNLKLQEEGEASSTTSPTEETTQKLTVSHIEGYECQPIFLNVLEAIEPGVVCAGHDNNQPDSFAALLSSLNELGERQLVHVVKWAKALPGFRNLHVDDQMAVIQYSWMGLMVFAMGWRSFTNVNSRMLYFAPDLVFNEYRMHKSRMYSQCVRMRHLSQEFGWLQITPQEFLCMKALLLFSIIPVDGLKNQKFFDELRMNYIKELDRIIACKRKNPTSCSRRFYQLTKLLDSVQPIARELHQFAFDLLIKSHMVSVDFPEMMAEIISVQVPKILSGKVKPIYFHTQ
Assay type: cell-based
How it was run: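 LNCaP cells in medium with 5% charcoal-stripped FBS were plated overnight, then treated with a compound dilution series for 20-22 h at 37° C. After fixation, permeabilisation and immunostaining, AR-associated green fluorescence was quantified by laser-scanning microplate cytometry; AR down-regulation expressed as IC50 from fitted dose-response curves.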
Work on `CC(C)Cc1ccc(CN2CCN(c3ccc4nnc(C(F)(F)F)n4n3)CC2)cc1` [Example 123, 6-[4-[[4-(2-methylpropyl)phenyl]methyl]piperazin-1-yl]-3-(trifluoromethyl)-[1,2,4]triazolo[4,3-b]pyridazine] yielded a DC50 of 4.1 µM. `Cc1ccc(Sc2ccc(CN3CCN(c4ccc5nnc(C(F)(F)F)n5n4)CC3)cn2)cc1` [Example 124, 6-[4-[[6-(4-methylphenyl)sulfanylpyridin-3-yl]methyl]piperazin-1-yl]-3-(trifluoromethyl)-[1,2,4]triazolo[4,3-b]pyridazine] was tested, and the DC50 was 1.7 µM. Compound `Fc1ccc(-c2cccc(CN3CCN(c4ccc5nnc(C(F)(F)F)n5n4)CC3)c2)cc1` [Example 125, 6-[4-[[3-(4-fluorophenyl)phenyl]methyl]piperazin-1-yl]-3-(trifluoromethyl)-[1,2,4]triazolo[4,3-b]pyridazine] has a DC50 of 1.9 µM. `Fc1ccc(Oc2ccc(CN3CCN(c4ccc5nnc(C(F)(F)F)n5n4)CC3)cc2)cc1` [Example 126, 6-[4-[[4-(4-fluorophenoxy)phenyl]methyl]piperazin-1-yl]-3-(trifluoromethyl)-[1,2,4]triazolo[4,3-b]pyridazine] gave a DC50 of 2 µM. `FC(F)(F)c1nnc2ccc(N3CCN(Cc4ccc(Br)cc4)CC3)nn12` [Example 127, 6-[4-[(4-bromophenyl)methyl]piperazin-1-yl]-3-(trifluoromethyl)-[1,2,4]triazolo[4,3-b]pyridazine] was tested, and the DC50 was 1.5 µM. In the case of `CCN(CC)c1ccc(CN2CCN(c3ccc4nnc(C(F)(F)F)n4n3)CC2)cc1` [Example 128, N,N-diethyl-4-[[4-[3-(trifluoromethyl)-[1,2,4]triazolo[4,3-b]pyridazin-6-yl]piperazin-1-yl]methyl]aniline], the DC50 is reported as 2.3 µM. `CSc1ccc(CN2CCN(c3ccc4nnc(C(F)(F)F)n4n3)CC2)cc1` [Example 129, 6-[4-[(4-methylsulfanylphenyl)methyl]piperazin-1-yl]-3-(trifluoromethyl)-[1,2,4]triazolo[4,3-b]pyridazine] showed a DC50 of 0.99 µM. Compound `CC(C)c1ccc(CN2CCN(c3ccc4nnc(C(F)(F)F)n4n3)CC2)cc1` [Example 130, 6-[4-[(4-propan-2-ylphenyl)methyl]piperazin-1-yl]-3-(trifluoromethyl)-[1,2,4]triazolo[4,3-b]pyridazine] has a DC50 of 1.8 µM. With `FC(F)(F)Oc1ccc(CN2CCN(c3ccc4nnc(C(F)(F)F)n4n3)CC2)cc1` [Example 131, 6-[4-[[4-(trifluoromethoxy)phenyl]methyl]piperazin-1-yl]-3-(trifluoromethyl)-[1,2,4]triazolo[4,3-b]pyridazine] the DC50 was 4.1 µM. With `FC(F)(F)c1nnc2ccc(N3CCN(Cc4ccc(Oc5ccc(Cl)cc5)cc4)CC3)nn12` [Example 132, 6-[4-[[4-(4-chlorophenoxy)phenyl]methyl]piperazin-1-yl]-3-(trifluoromethyl)-[1,2,4]triazolo[4,3-b]pyridazine] the DC50 was 2.6 µM. In the case of `FC(F)(F)c1nnc2ccc(N3CCN(Cc4ccc(-c5ccccn5)cc4)CC3)nn12` [Example 134, 6-[4-[(4-pyridin-2-ylphenyl)methyl]piperazin-1-yl]-3-(trifluoromethyl)-[1,2,4]triazolo[4,3-b]pyridazine], the DC50 is reported as 1.8 µM. For `CCS(=O)(=O)c1ccc(CN2CCN(c3ccc4nnc(C(F)(F)F)n4n3)CC2)cc1` [Example 135, 6-[4-[(4-ethylsulfonylphenyl)methyl]piperazin-1-yl]-3-(trifluoromethyl)-[1,2,4]triazolo[4,3-b]pyridazine], the DC50 was 4.9 µM. Work on `FC(F)(F)c1nnc2ccc(N3CCN(Cc4ccc(Cl)nc4)CC3)nn12` [Example 137, 6-[4-[(6-chloropyridin-3-yl)methyl]piperazin-1-yl]-3-(trifluoromethyl)-[1,2,4]triazolo[4,3-b]pyridazine] yielded a DC50 of 1.5 µM. For `C=CCOc1ccc(CN2CCN(c3ccc4nnc(C(F)(F)F)n4n3)CC2)cc1` [Example 139, 6-[4-[(4-prop-2-enoxyphenyl)methyl]piperazin-1-yl]-3-(trifluoromethyl)-[1,2,4]triazolo[4,3-b]pyridazine], the DC50 was 2 µM.

— patent US8003649B2 (AstraZeneca AB, priority 2007, dated 2011)
